Results on 20 molecules are retold here after ChEMBL document CHEMBL4665638, “Second Generation Inhibitors of HIV-1 Maturation” (ACS Med Chem Lett, 2019).

Data set [1] is described as follows: Binding affinity to wild type HIV-1 NL4-3 CA-SP1 cleavage site of Gag-Pol protein assessed as inhibition of HIV-1 maturation in presence of human serum albumin. Further details: species or system Human immunodeficiency virus 1.
Data set [2] in a line: Binding affinity to HIV-1 CA-SP1 cleavage site of Gag-pol protein harboring deltaV370 mutant assessed as inhibition of HIV-1 maturation. More on the design: species or system Human immunodeficiency virus 1.
Data set [3] is described as follows: Binding affinity to wild type HIV-1 NL4-3 CA-SP1 cleavage site of Gag-Pol protein assessed as inhibition of HIV-1 maturation. More on the design: species or system Human immunodeficiency virus 1.
Data set [4] can be described thus: Binding affinity to HIV-1 CA-SP1 cleavage site of Gag-Pol protein harboring V370A mutant assessed as inhibition of HIV-1 maturation. More on the design: species or system Human immunodeficiency virus 1.
Data set [5] relates to Human immunodeficiency virus 1. In words: Ratio of EC50 for wild type HIV-1 NL4-3 CA-SP1 cleavage site of Gag-Pol protein in presence of human serum albumin to EC50 for wild type HIV-1 NL4-3 CA-SP1 cleavage site of Gag-Pol protein.
A short description of data set [6]: Binding affinity to HIV-1 CA-SP1 cleavage site of Gag-Pol protein harboring deltaThr371 mutant assessed as inhibition of HIV-1 maturation. More on the design: species or system Human immunodeficiency virus 1.
Data set [7] can be described thus: Aqueous solubility of the compound. In kind it is physicochemical.
A short description of data set [8]: Oral bioavailability in dog. In kind it is ADME, organism-based, Canis lupus familiaris. As to conditions: in vivo.
Data set [9] in a line: Binding affinity to HIV-1 CA-SP1 cleavage site of Gag-Pol protein harboring Thr371Ala mutant assessed as inhibition of HIV-1 maturation. More on the design: species or system Human immunodeficiency virus 1.
Data set [10] is described as follows: AUC in rat at 5 mg/kg, po measured for 6 hrs. It counts as ADME, organism-based. More on the design: time 6 hrs, dose 5 mg/kg. The settings on record: in vivo.
A short description of data set [11]: Binding affinity to HIV-1 CA-SP1 cleavage site of Gag-Pol protein harboring V370M mutant assessed as inhibition of HIV-1 maturation. Further details: species or system Human immunodeficiency virus 1.
Data set [12] in a line: Binding affinity to HIV-1 CA-SP1 cleavage site of Gag-Pol protein harboring deltaV370/Thr371Ala mutant assessed as inhibition of HIV-1 maturation. Further details: species or system Human immunodeficiency virus 1.
Data set [13] in a line: Volume of distribution at steady state in dog. As to conditions: in vivo, read-out: Vdss. In kind it is ADME, Canis lupus familiaris.
A short description of data set [14]: Oral bioavailability in cynomolgus monkey. In kind it is ADME, organism-based, Macaca fascicularis. The settings on record: in vivo.
Data set [15] in a line: Volume of distribution at steady state in cynomolgus monkey. It counts as ADME, Macaca fascicularis. As to conditions: in vivo, read-out: Vdss.
Data set [16] can be described thus: Binding affinity to HIV-1 CA-SP1 cleavage site of Gag-Pol protein harboring V362I mutant assessed as inhibition of HIV-1 maturation. Further details: species or system Human immunodeficiency virus 1.
A short description of data set [17]: Clearance in dog. It counts as ADME, Canis lupus familiaris. As to conditions: in vivo.
The nature of data set [18]: AUC in rat for 6 hrs. As to conditions: in vivo. Further details: time 6 hrs. It counts as ADME.
The nature of data set [19]: Clearance in rat at 5 mg/kg, po or 1 mg/kg, iv. As to conditions: in vivo. In kind it is ADME, organism-based.
Data set [20] is described as follows: Binding affinity to HIV-1 CA-SP1 cleavage site of Gag-Pol protein harboring […] mutant assessed as inhibition of HIV-1 maturation. More on the design: species or system Human immunodeficiency virus 1.

Take `C=C(C)[C@@H]1CC[C@]2(CNCCN(C)C)CC[C@]3(C)[C@H](CC[C@@H]4[C@@]5(C)CC=C(c6ccc(C(=O)O)cc6)C(C)(C)[C@@H]5CC[C@]43C)[C@@H]12`: the EC50 (commonly the midpoint of the concentration-response curve) in data set [1] was 9 nM; in data set [2], 21 nM.

As for `C=C(C)[C@@H]1CC[C@]2(C(=O)O)CC[C@]3(C)[C@H](CC[C@@H]4[C@@]5(C)CC=C(c6ccc(C(=O)O)c(C(=O)O)c6)C(C)(C)[C@@H]5CC[C@]43C)[C@@H]12`, the EC50 turned out to be 38 nM in [3] and 212 nM in [4].

`C=C(C)[C@@H]1CC[C@]2(C(=O)NCCN(C)C)CC[C@]3(C)[C@H](CC[C@@H]4[C@@]5(C)CC=C(c6ccc(C(=O)O)cc6)C(C)(C)[C@@H]5CC[C@]43C)[C@@H]12`: the EC50 in [2] is 31 nM.

For the molecule `C=C(C)[C@@H]1CC[C@]2(C(=O)N[C@@H](CN(C)C)C(=O)O)CC[C@]3(C)[C@H](CC[C@@H]4[C@@]5(C)CC=C(c6ccc(C(=O)O)cc6)C(C)(C)[C@@H]5CC[C@]43C)[C@@H]12`, the values for the EC50 in [3], in data set [4] and in [2] were 46 nM, 772 nM and > 160 nM, respectively.

In the case of `C=C(C)[C@@H]1CC[C@]2(C(=O)O)CC[C@]3(C)[C@H](CC[C@@H]4[C@@]5(C)CC=C(c6ccc(C(=O)O)cc6C)C(C)(C)[C@@H]5CC[C@]43C)[C@@H]12`, the EC50 turned out to be 613 nM in data set [3], 3900 nM in data set [4] and 660 nM in data set [1]. Besides, the Ratio EC50 in [5] worked out at 1.

On to `C=C(C)[C@@H]1CC[C@]2(NCCN3CCS(=O)(=O)CC3)CC[C@]3(C)[C@H](CC[C@@H]4[C@@]5(C)CC=C(c6ccc(C(=O)O)cc6)C(C)(C)[C@@H]5CC[C@]43C)[C@@H]12` [BMS-955176], for which the EC50 amounted to 5 nM in [6]; 3 nM in [9]; 3 nM in data set [11]; 7 nM in data set [12]; 4 nM in data set [16]; 3 nM in data set [4]. Also, the EC50 in [1] came out at 10 nM; in data set [2] it was 13 nM. The solubility (commonly how much of the substance goes into solution per volume) in data set [7] is < 1 µg/mL. For the same molecule, the results for the bioavailability in data set [8] and in data set [14] were 9% and 4%, respectively. Besides, in [10], the AUC (in general, concentration integrated over time) at 6 h came to 14.2 µM·h. Besides, the Vd was 0.43 L/kg in data set [13] and 0.36 L/kg in [15]. In addition, the clearance in [17] was 0.13 mL/min/kg.

In the case of `C=C(C)[C@@H]1CC[C@]2(C(=O)NCCC(=O)O)CC[C@]3(C)[C@H](CC[C@@H]4[C@@]5(C)CC=C(c6ccc(C(=O)O)cc6)C(C)(C)[C@@H]5CC[C@]43C)[C@@H]12`, the EC50 in data set [3] was 37 nM; in data set [4], 427 nM; in [1] it was 449 nM; in [2], > 4000 nM.

In the case of `C=C(C)[C@@H]1CC[C@]2(C(=O)O)CC[C@]3(C)[C@H](CC[C@@H]4[C@@]5(C)CC=C(c6ccc(C(=O)O)cc6F)C(C)(C)[C@@H]5CC[C@]43C)[C@@H]12`, the results for the EC50 in data set [3], in data set [4] and in data set [1] were 55 nM, 1400 nM and 50 nM, respectively. Besides, the Ratio EC50 in data set [5] was 1.

Consider `C=C(C)[C@@H]1CC[C@]2(C(=O)NCCC(C)C)CC[C@]3(C)[C@H](CC[C@@H]4[C@@]5(C)CC=C(c6ccc(C(=O)O)cc6)C(C)(C)[C@@H]5CC[C@]43C)[C@@H]12`, for which the EC50 in data set [3] is 47 nM; in data set [4] it was 101 nM; in data set [2], 1600 nM.

Molecule `C=C(C)[C@@H]1CC[C@]2(C(=O)O)CC[C@]3(C)[C@H](CC[C@@H]4[C@@]5(C)CC=C(c6ccc(C(=O)O)cc6)C(C)(C)[C@@H]5CC[C@]43C)[C@@H]12` yielded an AUC at 6 h in [18] of 5.72 µM·h. Besides, in data set [2], the EC50 is > 3000 nM. The clearance in data set [19] was determined as 1 mL/min/kg.

For the molecule `C=C(C)[C@@H]1CC[C@]2(C(=O)O)CC[C@]3(C)[C@H](CC[C@@H]4[C@@]5(C)CC[C@H](OC(=O)CC(C)(C)C(=O)O)C(C)(C)[C@@H]5CC[C@]43C)[C@@H]12` [BEVIRIMAT], the solubility in data set [7] was < 1 µg/mL. Besides, the EC50 in data set [11] was 111 nM; in data set [12], > 4000 nM; in [20], 8 nM. For the same molecule, the clearance in data set [19] was determined as 4 mL/min/kg.

In the case of `C=C(C)[C@@H]1CC[C@]2(C(=O)NCCNC(C)=O)CC[C@]3(C)[C@H](CC[C@@H]4[C@@]5(C)CC=C(c6ccc(C(=O)O)cc6)C(C)(C)[C@@H]5CC[C@]43C)[C@@H]12`, the EC50 is 5 nM in [3], 24 nM in data set [4], 22 nM in data set [1] and 361 nM in [2].

For the molecule `C=C(C)[C@@H]1CC[C@]2(C(=O)NCCN(CC)CC(=O)O)CC[C@]3(C)[C@H](CC[C@@H]4[C@@]5(C)CC=C(c6ccc(C(=O)O)cc6)C(C)(C)[C@@H]5CC[C@]43C)[C@@H]12`, the EC50 was 3 nM in data set [3], 9 nM in [4] and 64 nM in data set [2].

Regarding `C=C(C)[C@@H]1CC[C@]2(C(=O)O)CC[C@]3(C)[C@H](CC[C@@H]4[C@@]5(C)CC=C(c6ccc(C(=O)O)cc6Cl)C(C)(C)[C@@H]5CC[C@]43C)[C@@H]12`, the EC50 in [3] is 114 nM; in data set [4] it was > 4000 nM; in [1] it was 117 nM. In [5], the Ratio EC50 was determined as 1.

The molecule `C=C(C)[C@@H]1CC[C@]2(CNCCCN3CCS(=O)(=O)CC3)CC[C@]3(C)[C@H](CC[C@@H]4[C@@]5(C)CC=C(c6ccc(C(=O)O)cc6)C(C)(C)[C@@H]5CC[C@]43C)[C@@H]12` displayed an AUC at 6 h in data set [10] of 1.71 µM·h.

For the molecule `C=C(C)[C@@H]1CC[C@]2(C(=O)NCCN3CCS(=O)(=O)CC3)CC[C@]3(C)[C@H](CC[C@@H]4[C@@]5(C)CC=C(c6ccc(C(=O)O)cc6)C(C)(C)[C@@H]5CC[C@]43C)[C@@H]12`, the values for the EC50 in data set [3], in data set [4] and in [2] were 2 nM, 6 nM and 60 nM, respectively. In data set [10], the AUC at 6 h was determined as 3.99 µM·h.

As for `C=C(C)[C@@H]1CC[C@]2(CN(C)CCCN3CCS(=O)(=O)CC3)CC[C@]3(C)[C@H](CC[C@@H]4[C@@]5(C)CC=C(c6ccc(C(=O)O)cc6)C(C)(C)[C@@H]5CC[C@]43C)[C@@H]12`, the AUC in [10] (6 h) amounted to 4.834 µM·h. Also, the EC50 in [2] amounted to 26 nM.

For `C=C(C)[C@@H]1CC[C@]2(C(=O)O)CC[C@]3(C)[C@H](CC[C@@H]4[C@@]5(C)CC=C(c6cccc(C(=O)O)c6)C(C)(C)[C@@H]5CC[C@]43C)[C@@H]12`, in data set [3], the EC50 is > 8000 nM.

For `C=C(C)[C@@H]1CC[C@]2(NCCN3CCS(=O)(=O)CC3)CC[C@]3(C)[C@H](CC[C@@H]4[C@@]5(C)CC=C(c6ccc(C(=O)O)c(F)c6)C(C)(C)[C@@H]5CC[C@]43C)[C@@H]12`, the figures for the EC50 in [3], in data set [1] and in data set [2] were 3 nM, 13 nM and 10 nM, respectively. In addition, in data set [10], the AUC at 6 h is 25.5 µM·h.

For the molecule `C=C(C)[C@@H]1CC[C@]2(CNCCN3CCS(=O)(=O)CC3)CC[C@]3(C)[C@H](CC[C@@H]4[C@@]5(C)CC=C(c6ccc(C(=O)O)cc6)C(C)(C)[C@@H]5CC[C@]43C)[C@@H]12`, the EC50 in [2] was found to be 6 nM.
